Laboratory results from ChEMBL document CHEMBL3352654, “Synthesis, biological evaluation and SAR analysis of O-alkylated analogs of quercetin for anticancer” (Bioorg Med Chem Lett, 2014).
pIC50: −log10 of the molar value.

Tests used:
Assay type in all cases: functional, cell-based
A549 = experiment: Anticancer activity against human A549 cells by HTS assay
NCI-H157 = experiment: Anticancer activity against human NCI-H157 cells by HTS assay
[1] = Anticancer activity against human H460 cells by HTS assay; conditions: NCI-H460
NCI-H1792 = experiment: Anticancer activity against human NCI-H1792 cells by HTS assay
[2] = Anticancer activity against human NCI-H1944 cells by HTS assay
[3] = Anticancer activity against human […] cells by HTS assay
NCI-H522 = experiment: Anticancer activity against human NCI-H522 cells by HTS assay
HOP-62 = experiment: Anticancer activity against human HOP62 cells by HTS assay
[4] = Anticancer activity against human H1299 cells by HTS assay; conditions: NCI-H1299
[5] = Anticancer activity against human 292G cells by HTS assay
[6] = Anticancer activity against human Calu1 cells by HTS assay; conditions: Calu-1
[7] = Anticancer activity against human M4E cells by HTS assay
[8] = Anticancer activity against human LOXIMVI cells by HTS assay; conditions: LOX IMVI
M14 = experiment: Anticancer activity against human M14 cells by HTS assay
[9] = Anticancer activity against human SKBR cells by HTS assay
HeLa = experiment: Anticancer activity against human HeLa cells by HTS assay

| pIC50 (A549) | pIC50 (NCI-H157) | pIC50 [1] | pIC50 (NCI-H1792) | pIC50 [2] | pIC50 [3] | pIC50 (NCI-H522) | pIC50 (HOP-62) | pIC50 [4] | pIC50 [5] | pIC50 [6] | pIC50 [7] | pIC50 [8] | pIC50 (M14) | pIC50 [9] | pIC50 (HeLa) | SMILES |
| --- | --- | --- | --- | --- | --- | --- | --- | --- | --- | --- | --- | --- | --- | --- | --- | --- |
| 5.27 | 4.89 | 5.15 | 4.71 | 6.34 | < 4.30 | < 4.30 | 4.88 | 4.81 | 4.62 | 4.40 | 4.67 | 4.62 | 4.66 | 5.28 | 4.95 | COc1cc(O)c2c(=O)c(OC)c(-c3ccc(O)c(O)c3)oc2c1 |
| 4.50 | < 4.30 | < 4.30 | < 4.30 | < 4.30 | < 4.30 | < 4.30 | < 4.30 | < 4.30 | < 4.30 | < 4.30 | < 4.30 | < 4.30 | < 4.30 | < 4.30 | 5.18 | CCCCOc1cc(O)c2c(=O)c(OCCCC)c(-c3ccc(OCCCC)c(O)c3)oc2c1 |
| 4.87 | 5.20 | 4.70 | 5.34 | 5.15 | 4.50 | 4.90 | 4.68 | < 4.30 | 4.54 | < 4.30 | 4.72 | 4.58 | 4.59 | 5.04 | 4.98 | CCCCOc1c(-c2ccc(O)c(O)c2)oc2cc(O)cc(O)c2c1=O |
| < 4.30 | < 4.30 | < 4.30 | < 4.30 | < 4.30 | < 4.30 | < 4.30 | < 4.30 | 4.98 | < 4.30 | 5.19 | < 4.30 | 6.41 | 6.42 | < 4.30 | 4.33 | COc1cc(O)c2c(=O)c(OC)c(-c3ccc(OC)c(OC)c3)oc2c1 [RETUSIN] |
| 4.86 | 4.99 | 4.92 | 4.88 | 4.67 | 4.51 | 4.31 | 4.66 | 4.33 | 4.55 | 4.58 | 4.56 | < 4.30 | 4.60 | 4.74 | 4.67 | CCCOc1ccc(-c2oc3cc(O)cc(O)c3c(=O)c2O)cc1O |
| 5.09 | 4.73 | 5.00 | 4.62 | 4.63 | < 4.30 | < 4.30 | 4.45 | 4.33 | 4.31 | < 4.30 | 4.41 | < 4.30 | < 4.30 | 4.86 | 5.22 | COc1c(-c2ccc(O)c(O)c2)oc2cc(O)cc(O)c2c1=O [3-O-METHYLQUERCETIN] |
| 5.58 | 5.52 | 5.35 | 5.39 | 5.41 | 5.12 | < 4.30 | 5.00 | 4.66 | 4.90 | 4.60 | 4.70 | < 4.30 | 4.83 | 5.10 | 5.74 | COc1ccc(-c2oc3cc(O)cc(O)c3c(=O)c2O)cc1O [TAMARIXETIN] |
| 5.26 | 5.21 | 5.16 | 4.98 | 5.23 | 4.74 | 4.75 | 4.91 | 4.80 | 5.00 | 4.60 | 4.77 | 4.54 | 4.71 | 5.17 | 5.02 | CCCCOc1ccc(-c2oc3cc(O)cc(O)c3c(=O)c2O)cc1O |
